{
  "source": "patent US12383158B2",
  "about": "“Detection of high-risk unstable atherosclerotic plaque” (The Heart Research Institute Ltd, priority 2018, dated 2025)",
  "key": {"[1]": {"target": "T1, MPO activity in atherosclerotic plaque (Mus musculus, UniProt P11247)", "T1 sequence (P11247 139-718)": "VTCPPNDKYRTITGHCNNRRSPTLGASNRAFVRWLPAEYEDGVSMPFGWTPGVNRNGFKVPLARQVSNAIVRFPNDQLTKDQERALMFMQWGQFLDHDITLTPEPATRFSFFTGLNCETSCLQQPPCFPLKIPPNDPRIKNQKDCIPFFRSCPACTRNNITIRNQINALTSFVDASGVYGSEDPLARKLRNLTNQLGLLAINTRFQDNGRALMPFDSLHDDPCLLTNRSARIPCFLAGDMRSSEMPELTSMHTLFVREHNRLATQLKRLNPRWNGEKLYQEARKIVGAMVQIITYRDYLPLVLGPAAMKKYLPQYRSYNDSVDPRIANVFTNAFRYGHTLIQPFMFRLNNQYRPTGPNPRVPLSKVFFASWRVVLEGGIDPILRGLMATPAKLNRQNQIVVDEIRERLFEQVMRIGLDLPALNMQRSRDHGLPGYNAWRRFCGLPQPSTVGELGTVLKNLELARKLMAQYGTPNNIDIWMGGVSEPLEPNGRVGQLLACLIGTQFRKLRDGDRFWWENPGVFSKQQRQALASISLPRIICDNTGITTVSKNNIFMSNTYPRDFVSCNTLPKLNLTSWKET", "details": "for CNR of unstable plaque in the right carotid artery, 30 min after contrast injection / CNR of unstable plaque in the right carotid artery, 60 min after contrast injection: mean±SD", "text": "Scheme of action of bis-5HT-DTPA-Gd (MPO-Gd) and magnetic resonance imaging protocol. A, In the presence of H2O2, MPO oxidises the 5-hydroxytryptamine moiety of MPO-Gd to a phenoxyl radical, which then can give rise to either an MPO-Gd dimer or multimer (not shown) to amplify the signal. The phenoxyl radical-containing MPO-Gd may also covalently bind to proteins. […] B, Mice were imaged under isoflurane anaesthesia. Initial acquisition involved a localiser, time-of-flight and T1-weighted turbo spin echo (T1-TSE) imaging. Approximately 30 μmin after acquisition of baseline images, MPO-Gd (0.3 mmol/kg) was injected intravenously via the tail vein. Consecutive T1-TSE images were then acquired for 60 μmin following contrast injection. Segmental analysis of MPO activity was assessed by calculating the ΔCNR (CNRpost-contrast−CNRpre-contrast) for unstable and stable plaque, and non-diseased arterial segments.\nAt 7 weeks following TS surgery, isoflurane-anaesthetised mice were imaged in the prone position using a 9.4T Bruker Biospec 94/20 Avance III system (Bruker, Ettlingen, Germany) with a 50-mm quadrature radiofrequency coil and respiratory-gated image acquisition. Mice were imaged before and after intravenous administration of 0.3 μmmol/kg of the MPO sensor bis-5-hydroxytryptamide-DTPA Gd (MPO-Gd) or DTPA-Gd (Magnevist, Bayer, Leverkusen, Germany) via a tail vein catheter. Prior to contrast injection, a flow-compensated 2D-FLASH time-of-flight (TOF) angiography in a coronal slice orientation was performed to assess intra-vessel (luminal) volume and geometry using a flow compensated 2D-GRE sequence (FLASH) for time-of-flight (TOF) angiography in an axial slice orientation with the following major parameters: TR 34 μms, TE 3 μms, slice thickness 0.5 μmm, interslice distance 0.35 μmm, 40 slices, matrix size 128×128, FOV 20×20 μmm, in-plane resolution 156×156 μm. This was followed by a T1-weighted fast spin echo (TurboRARE, T1-TSE) acquired in the same orientation with the following parameters: TR 1500 μms, TE 8.5 μms, ETL 8, slice thickness 1 μmm, FOV 20×20 μmm, matrix size 192×192, in-plane resolution 104×104 μm. This T1-TSE protocol was then repeated in a scan series covering a period of one hour following contrast injection to assess contrast agent inflow and retention. OsiriX (Version 7.0, Pixmeo, Switzerland) was used for image analysis. In T1-TSE images, separate regions of interest were assigned to the vessel wall, skeletal muscle (reference) and background (air). The contrast-to-noise ratio (CNR) was calculated as follows: CNR=(SIvessel wall−SIskeletal muscle)/SDbackground The mean CNRs of three consecutive slices in plaque with unstable phenotype and corresponding segments of the left carotid artery (plaque-free), in addition to 1-2 consecutive slices in the brachiocephalic trunk (stable plaque, SP), were calculated. Segmental enhancement attributable to MPO was assessed by calculating the ΔCNR=CNRpost-contrast−CNRpre-contrast."}, "[2]": {"details": "mouse, in vivo", "experimental": "Nuclear microscopy experiments were performed at the Centre for Ion Beam Applications at the National University of Singapore, as described previously.6 Briefly, the samples were mounted onto a 3-axis stage within a scattering chamber maintained at <5×10−6 μmbar. A collimated proton beam (H+) at 2.1 MeV was generated using a 3.5 MV Singletron accelerator and kept incident onto the samples inclined at 45 degrees to the incident beam. The broad incident ion beam was focused down to a spot size of 1 μm and scanned across the region of interest. […]\nPIXE data was collected using a Si(Li) detector placed at 20 μmm from the samples to the Si(Li) crystal face. RBS and STIM data were measured by a passivated implanted planar silicon (PIPS) detector. […]\nScanning transmission ion microscopy provides structural maps based on the energy lost by the protons as they pass through the relatively thin organic samples with thicknesses of 30 μm or less, enabling structural identification without fixing or staining. Trace elemental mapping was performed using particle-induced X-ray emission, which simultaneously provides multiple elements with high quantitative accuracy and sensitivity to a few parts per million in biological materials. […]"}, "[3]": {"details": "TS Apoe−/− mice, 0.3 mmol/kg i.v."}},
  "data": [
    {"smiles": "CNC[C@H](O)[C@@H](O)[C@H](O)[C@H](O)CO.CNC[C@H](O)[C@@H](O)[C@H](O)[C@H](O)CO.O=C([O-])CN(CCN(CC(=O)[O-])CC(=O)O)CCN(CC(=O)[O-])CC(=O)O.[Gd+3]", "note": "[DTPA-Gd]", "values": [
      {"measurement": "CNR of unstable plaque in the right carotid artery, 30 min after contrast injection", "setting": "[1]; [3]", "value": "19.2±7.2"},
      {"measurement": "CNR of unstable plaque in the right carotid artery, 60 min after contrast injection", "setting": "[1]; [3]", "value": "13.4±3.6"}
    ]},
    {"smiles": "O=C([O-])CN(CCN(CC(=O)[O-])CC(=O)NCCc1c[nH]c2ccc(O)cc12)CCN(CC(=O)[O-])CC(=O)NCCc1c[nH]c2ccc(O)cc12.[Gd+3]", "note": "[MPO-Gd, bis-5-hydroxytryptamide-DTPA Gd]", "values": [
      {"measurement": "enhancement of the right carotid artery in TS Mpo−/−Apoe−/− mice", "setting": "[1]; 60 min, compared with Apoe−/− mice", "value": "attenuated enhancement"},
      {"measurement": "enhancement of the brachiocephalic artery (stable plaque)", "setting": "[1]; [3]", "value": "did not result in significant sustained enhancement"},
      {"measurement": "enhancement of the non-diseased vessel wall of the left carotid artery", "setting": "[1]; [3]", "value": "no significant enhancement"},
      {"measurement": "CNR of unstable plaque in the right carotid artery, 30 min after contrast injection", "setting": "[1]; [3]", "value": "23.7±6.8"},
      {"measurement": "CNR of unstable plaque in the right carotid artery, 60 min after contrast injection", "setting": "[1]; [3]", "value": "25±6.4"},
      {"measurement": "period within which the enhancing material is washed out/eliminated from Segment I", "setting": "[1]; mouse, in vivo", "value": "< 2", "unit": "weeks"},
      {"measurement": "plaque specificity of enhancement 1 week after TS surgery", "setting": "[1]; unstable plaque (Segment I) vs stable plaque (brachiocephalic artery)", "value": "seen only in unstable plaque"},
      {"measurement": "Gd content of unstable plaque", "setting": "[2]", "value": "significant accumulation of Gd"}
    ]}
  ]
}
